The values below come from article PMC10821124, “Dimeric 3,5-Bis(benzylidene)-4-piperidones: Tumor-Selective Cytotoxicity and Structure-Activity Relationships” (Medicines, 2024).

The test system of series [1] is human promyelocytic leukemia HL-60 cells. Briefly: Cytotoxicity, MTT method, HL-60 cells. In kind it is cell-based. The conditions noted are these: for CC50: Homo sapiens, HL-60, 48 h, MTT, mean ± SD, read-out: CC50 HL-60; for SI (selectivity index) HL-60: average CC50 non-malignant cells / CC50 HL-60. The protocol: (§1) Human promyelocytic leukemia [HL-60 (RCB3683)] (purchased from Riken Cell Bank, Tsukuba, Japan) was cultured at 37 °C in RPMI1640 medium (Fujifilm Wako Pure Chemical Co., Osaka, Japan) supplemented with 10% heat (56 °C, 30 min) inactivated FBS (Sigma-Aldrich Inc. St. Louis, MO, USA), 100 U/mL penicillin G, and 100 µg/mL streptomycin sulfate in a humidified 5% CO2 incubator (MCO-170 AICUVD-P, Panasonic Healthcare Co., Ltd., Gunma, Japan). Human oral squamous cell carcinoma (OSCC) cell lines derived from tongue [HSC-2 (RCB1945), HSC-3 (RCB1975), HSC-4 (RCB1902)] (Riken Cell Bank), and human normal oral cells (gingival fibroblasts, HGF; pulp cell, HPC; periodontal ligament fibroblast, HPLF), established from the first premolar extracted tooth in the lower jaw and periodontal tissues of a child, according to the guidelines of Meikai University Ethic Committee (No. A0808), were cultured in DMEM medium (Fujifilm Wako Pure Chemical Co.) supplemented with 10% FBS and antibiotics. The compounds in Series 2–4 were evaluated against HL-60, HSC-2, HSC-3, HSC-4, HGF, HPC, and HPLF cells based on a literature procedure, as described previously. In brief, near confluent cells were incubated in triplicate for 48 h at 37 °C with different concentrations ([…], 6.3, 12.5, 25, 50, 100 µM) of the compounds; then, viable cell numbers were measured using the MTT method. From the dose–response curve, a 50% cytotoxic concentration (CC50) was determined. All samples were dissolved in dimethylsulfoxide (DMSO). The toxicity of DMSO alone was calculated and subtracted. The CC50 values were determined from dose–response curves.
In general terms: Tetrazolium dyes change colour on reduction, which living cells bring about.

Series [2] concerns human oral squamous cell carcinoma HSC-2 cells. In words: Cytotoxicity, MTT method, HSC-2 cells. The note with it: for CC50: Homo sapiens, HSC-2, 48 h, MTT, mean ± SD, read-out: CC50 HSC-2; for SI (selectivity index) HSC-2: average CC50 non-malignant cells / CC50 HSC-2. In kind it is cell-based. How it is done: as §1
For series [3], the system named is human oral squamous cell carcinoma HSC-3 cells. In words: Cytotoxicity, MTT method, HSC-3 cells. The note with it: for CC50: Homo sapiens, HSC-3, 48 h, MTT, mean ± SD, read-out: CC50 HSC-3; for SI (selectivity index) HSC-3: average CC50 non-malignant cells / CC50 HSC-3. In kind it is cell-based. How it is done: as §1
Series [4] relates to human oral squamous cell carcinoma HSC-4 cells. In words: Cytotoxicity, MTT method, HSC-4 cells. The note with it: for CC50: Homo sapiens, HSC-4, 48 h, MTT, mean ± SD, read-out: CC50 HSC-4; for SI (selectivity index) HSC-4: average CC50 non-malignant cells / CC50 HSC-4. In kind it is cell-based. The protocol:
as §1

Series [5] can be described thus: Cytotoxicity, MTT method, HGF non-malignant cells. The class given is cell-based, human. The conditions noted are these: human, gingival fibroblasts (HGF), non-malignant, mean ± SD. The protocol: as §1
A short description of series [6]: Cytotoxicity, MTT method, HPC non-malignant cells. The class given is cell-based, human. The note with it: human, pulp cells (HPC), non-malignant, mean ± SD. How it is done:
as §1

Series [7] can be described thus: Cytotoxicity, MTT method, HPLF non-malignant cells. The class given is cell-based, human. The note with it: human, periodontal ligament fibroblasts (HPLF), non-malignant, mean ± SD. The protocol: as §1
Series [8] has as its system human tumour cell lines HL-60, HSC-2, HSC-3, HSC-4. Briefly: Cytotoxicity, average over the four human tumour cell lines. In kind it is cell-based. The conditions noted are these: for CC50: Homo sapiens, average of HL-60, HSC-2, HSC-3, HSC-4, read-out: AVE. CC50, human tumour cell lines; for AVE SI: average of the four SI values; for PSE (potency-selectivity expression): product of reciprocal of average CC50 (neoplastic cells) and average SI times 100. The protocol: as §1

Series [9] is described as follows: Cytotoxicity, average over the three human normal cells. The conditions noted are these: human, average of HGF, HPC, HPLF; read-out: AVE CC50, human normal cells. In kind it is cell-based. How it is done: as §1
For series [10], the system named is human normal cells HGF, HPC, HPLF. The series is described as above. The conditions noted are these: average of HGF, read-out: AVE CC50, human normal cells. The class given is cell-based. How it is done: as §1

Take `O=C1/C(=C/c2ccc(Cl)cc2)CN(C(=O)C(=O)N2C/C(=C\c3ccc(Cl)cc3)C(=O)/C(=C/c3ccc(Cl)cc3)C2)C/C1=C\c1ccc(Cl)cc1` [Compound 2c]: the CC50 (commonly the concentration giving 50% cytotoxicity) worked out at 4.4 ± 0.17 µM in series [1]; 3.7 ± 0.6 µM in [2]; 11 ± 1.1 µM in [3]; 6.7 ± 3 µM in series [4]; 6.45 µM in series [8]; 74.3 µM in series [10]. The “SI (selectivity index) HL-60” value in series [1] was 16.9. Besides, in series [2], the “SI (selectivity index) HSC-2” value worked out at 20.1. The “SI (selectivity index) HSC-3” value in series [3] is reported as 6.76. Further, in [4], the “SI (selectivity index) HSC-4” value is given as 11.1. The CC50 at 48 h in series [5] is 56 ± 6.7 µM; in series [6], 78 ± 37 µM; in [7], 89 ± 9.3 µM; in [9] it was more than 50 µM. The “AVE SI” value in series [8] was determined as 13.7.
Consider `COc1ccc(/C=C2\CN(C(=O)C(=O)N3C/C(=C\c4ccc(OC)cc4)C(=O)/C(=C/c4ccc(OC)cc4)C3)C/C(=C\c3ccc(OC)cc3)C2=O)cc1` [Compound 2h], for which the CC50 was 15 ± 0.42 µM in [1]; 7.8 ± 1.3 µM in series [2]; 9.2 ± 4.7 µM in [3]; 9.6 ± 0.17 µM in [4]; 10.4 µM in [8]; more than 81.7 µM in [10]. Besides, the “SI (selectivity index) HL-60” value in series [1] is recorded as more than 5.45. Besides, in [2], the “SI (selectivity index) HSC-2” value is given as more than 10.5. Further, the “SI (selectivity index) HSC-3” value in series [3] is recorded as more than 8.88. For the same molecule, in series [4], the “SI (selectivity index) HSC-4” value is on record as more than 8.51. For the same molecule, the CC50 at 48 h in series [5] is 82 ± 14 µM; in series [6] it was 63 ± 8 µM; in [7] it was more than 100 µM; in series [9] it was more than 50 µM. The “AVE SI” value in series [8] is reported as more than 8.34.
As to `CN(C)c1ccc(/C=C2\CN(C(=O)C(=O)N3C/C(=C\c4ccc(N(C)C)cc4)C(=O)/C(=C/c4ccc(N(C)C)cc4)C3)C/C(=C\c3ccc(N(C)C)cc3)C2=O)cc1` [Compound 2i], the CC50 in series [1], in series [2], in [3], in [4], in series [8] and in series [10] was more than 100 µM each time. Moreover, in series [1], the “SI (selectivity index) HL-60” value was approximately 1.00. Further, in [2], the “SI (selectivity index) HSC-2” value was approximately 1.00. Moreover, in series [3], the “SI (selectivity index) HSC-3” value is approximately 1.00. Further, the “SI (selectivity index) HSC-4” value in series [4] is on record as approximately 1.00. Moreover, the CC50 at 48 h in series [5] is more than 100 µM; in series [6], more than 100 µM; in series [7], more than 100 µM; in series [9], more than 50 µM. Moreover, in series [8], the “AVE SI” value is on record as approximately 1.00.
`O=C1/C(=C/c2ccc(Cl)c(Cl)c2)CN(C(=O)CC(=O)N2C/C(=C\c3ccc(Cl)c(Cl)c3)C(=O)/C(=C/c3ccc(Cl)c(Cl)c3)C2)C/C1=C\c1ccc(Cl)c(Cl)c1` [Compound 3d]: the 50% cytotoxic concentration (CC50) in series [1] was 65 ± 6.1 µM; in [2], 73 ± 3.5 µM; in series [3], 76 ± 13 µM; in series [4] it was 79 ± 5.5 µM; in series [8], 73.3 µM; in series [10] it was more than 100 µM. In addition, in series [1], the “SI (selectivity index) HL-60” value is listed as more than 1.54. Besides, in [2], the “SI (selectivity index) HSC-2” value is more than 1.37. In addition, the “SI (selectivity index) HSC-3” value in series [3] is listed as more than 1.32. In addition, in series [4], the “SI (selectivity index) HSC-4” value is reported as more than 1.27. Moreover, the CC50 at 48 h in series [5] is more than 100 µM; in series [6] it was more than 100 µM; in [7] it was more than 100 µM; in [9], more than 50 µM. Moreover, in [8], the “AVE SI” value is recorded as more than 1.38.
Turning to `COc1cc(/C=C2\CN(C(=O)CC(=O)N3C/C(=C\c4cc(OC)c(OC)c(OC)c4)C(=O)/C(=C/c4cc(OC)c(OC)c(OC)c4)C3)C/C(=C\c3cc(OC)c(OC)c(OC)c3)C2=O)cc(OC)c1OC` [Compound 3g], the CC50 in series [1] worked out at 0.03 ± 0.0002 µM; in series [2], 0.065 ± 0.016 µM; in [3], 0.035 ± 0.005 µM; in series [4], 0.038 ± 0.009 µM; in series [8] it was 0.04 µM. In addition, the “SI (selectivity index) HL-60” value in series [1] is 6.33. Moreover, the “SI (selectivity index) HSC-2” value in series [2] came out at 2.92. For the same molecule, the “SI (selectivity index) HSC-3” value in [3] is 5.43. Also, in [4], the “SI (selectivity index) HSC-4” value is reported as 5.00. Further, the half-maximal cytotoxic concentration (CC50) at 48 h in [5] is 0.093 ± 0.02 µM; in series [6] it was 0.18 ± 0.03 µM; in [7], 0.3 ± 0.047 µM; in series [9], 0.19 µM. Moreover, the “CC50 values in all four bioassays (range in words)” value in series [8] (HL-60, HSC-2, HSC-3, HSC-4) is on record as “double-digit nanomolar range”. The “AVE SI” value in series [8] turned out to be 4.92. Also, the “PSE (potency-selectivity expression)” value in series [8] is more than 100.
Turning to `O=C1/C(=C/c2ccccc2)CN(CCCN2C/C(=C\c3ccccc3)C(=O)/C(=C/c3ccccc3)C2)C/C1=C\c1ccccc1` [Compound 4], the half-maximal cytotoxic concentration (CC50) in [1] stood at 0.18 ± 0.011 µM; in series [2], 0.21 ± 0.032 µM; in series [3], 0.35 ± 0.11 µM; in [4] it was 0.083 ± 0.021 µM; in [8] it was 0.21 µM. Further, the “SI (selectivity index) HL-60” value in series [1] worked out at 22.2. Besides, in series [2], the “SI (selectivity index) HSC-2” value is given as 19.1. The “SI (selectivity index) HSC-3” value in series [3] came out at 11.4. In addition, in series [4], the “SI (selectivity index) HSC-4” value came out at 48.2. Besides, the CC50 at 48 h in series [5] was determined as 3 ± 0.21 µM; in [6], 3.7 ± 2 µM; in series [7], 5.3 ± 0.61 µM; in [9], 4 µM. Further, the “AVE SI” value in series [8] was determined as 25.2. In addition, the “PSE (potency-selectivity expression)” value in [8] is more than 100.
For the molecule `COc1cc(/C=C/C(=O)CC(=O)/C=C/c2ccc(O)c(OC)c2)ccc1O` [Curcumin, reference compound], the cytotoxic concentration (CC50) is 7.8 ± 0.58 µM in series [1]; 10 ± 0.81 µM in [2]; 16 ± 2.7 µM in series [3]; 14 ± 3.2 µM in [4]; 12 µM in series [8]. In addition, in series [1], the “SI (selectivity index) HL-60” value is given as 5.81. Also, the “SI (selectivity index) HSC-2” value in series [2] was 4.53. Also, the “SI (selectivity index) HSC-3” value in [3] is given as 2.83. For the same molecule, the “SI (selectivity index) HSC-4” value in [4] was 3.24. Further, the half-maximal cytotoxic concentration (CC50) at 48 h in series [5] was 70 ± 12 µM; in series [6] it was 34 ± 6.8 µM; in series [7], 32 ± 6.4 µM; in [9] it was 45.3 µM. Moreover, the “AVE SI” value in series [8] is 4.10.
